Experimental data published in ChEMBL document CHEMBL1909046, “DrugMatrix in vitro pharmacology data”.

Columns and labels:
[1] = DRUGMATRIX: beta-Lactamase enzyme inhibition (substrate: Nitrocefin); parameters: species or system Bacillus cereus; settings: Not Active = under 50% inhibition at 10 µM
[2] = biological target: T1, Muscarinic acetylcholine receptor M5 (Homo sapiens, UniProt P08912); type: cell membranes, CHO-K1, Membrane; settings: cho-k1; note: in other assays of this panel Not Active means under 50% inhibition at 10 µM
T1 sequence (P08912 whole entry): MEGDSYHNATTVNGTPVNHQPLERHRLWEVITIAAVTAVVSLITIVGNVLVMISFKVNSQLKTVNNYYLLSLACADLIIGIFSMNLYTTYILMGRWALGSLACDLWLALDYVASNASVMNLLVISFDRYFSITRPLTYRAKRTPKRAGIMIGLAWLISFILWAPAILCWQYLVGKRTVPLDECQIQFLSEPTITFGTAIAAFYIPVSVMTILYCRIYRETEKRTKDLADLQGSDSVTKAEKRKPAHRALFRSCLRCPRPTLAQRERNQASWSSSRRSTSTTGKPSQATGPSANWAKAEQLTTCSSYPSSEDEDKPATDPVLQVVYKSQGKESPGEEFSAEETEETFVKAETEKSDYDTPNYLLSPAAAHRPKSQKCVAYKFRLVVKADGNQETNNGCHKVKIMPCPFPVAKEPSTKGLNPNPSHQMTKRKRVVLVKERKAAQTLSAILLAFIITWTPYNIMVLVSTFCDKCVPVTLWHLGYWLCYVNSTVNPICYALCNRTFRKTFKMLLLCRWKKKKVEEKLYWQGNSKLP

[3] = biological target: Mitogen-activated protein kinase 1 (Homo sapiens, UniProt P28482); experiment: DRUGMATRIX: Protein Serine/Threonine Kinase, ERK2 enzyme inhibition (substrate: Myelin Basic Protein); parameters: species or system Escherichia coli; settings: Not Active = under 50% inhibition at 10 µM
Sequence of Mitogen-activated protein kinase 1 (P28482 whole entry): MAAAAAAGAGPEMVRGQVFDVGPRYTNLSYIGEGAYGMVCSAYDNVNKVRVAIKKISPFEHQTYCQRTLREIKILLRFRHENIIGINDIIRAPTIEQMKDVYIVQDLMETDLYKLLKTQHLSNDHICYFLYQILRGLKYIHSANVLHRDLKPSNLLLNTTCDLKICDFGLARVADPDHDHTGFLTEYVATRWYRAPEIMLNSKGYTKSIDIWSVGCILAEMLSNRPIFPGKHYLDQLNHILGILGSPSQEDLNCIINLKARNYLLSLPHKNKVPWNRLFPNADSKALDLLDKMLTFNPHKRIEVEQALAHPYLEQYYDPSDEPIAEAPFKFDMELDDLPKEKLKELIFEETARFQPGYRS

[4] = DRUGMATRIX: GABAA, Chloride Channel, TBOB radioligand binding (ligand: [3H] TBOB); type: cell membranes, Rattus norvegicus, Wistar, Cerebral cortex, Membrane; settings: Not Active = under 50% inhibition at 10 µM
[5] = biological target: T2, Alpha-1A adrenergic receptor (Rattus norvegicus, UniProt P43140); experiment: DRUGMATRIX: Alpha-1A adrenergic receptor radioligand binding (ligand: prazosin); type: cell membranes, Wistar, Submaxillary gland, Membrane; settings: Not Active = under 50% inhibition at 10 µM
T2 sequence (P43140 whole entry): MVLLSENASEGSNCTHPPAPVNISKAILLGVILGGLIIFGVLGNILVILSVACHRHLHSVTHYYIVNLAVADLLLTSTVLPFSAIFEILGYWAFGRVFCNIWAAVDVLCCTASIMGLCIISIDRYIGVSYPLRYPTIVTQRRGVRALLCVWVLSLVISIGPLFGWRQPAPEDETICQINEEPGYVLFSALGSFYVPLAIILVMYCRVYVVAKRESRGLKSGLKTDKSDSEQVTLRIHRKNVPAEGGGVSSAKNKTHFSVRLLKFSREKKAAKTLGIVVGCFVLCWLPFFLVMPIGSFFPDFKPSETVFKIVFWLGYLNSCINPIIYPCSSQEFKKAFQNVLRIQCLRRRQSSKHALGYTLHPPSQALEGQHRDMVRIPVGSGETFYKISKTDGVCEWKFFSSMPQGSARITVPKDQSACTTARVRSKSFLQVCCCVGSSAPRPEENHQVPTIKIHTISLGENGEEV

[6] = biological target: T3, Polyunsaturated fatty acid lipoxygenase ALOX15 (Oryctolagus cuniculus, UniProt P12530); experiment: biochemical; type: tissue-based, Reticulocytes;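 note: inhibition of 15-lipoxygenase enzyme activity measured with linoleic acid as the substrate; in other assays of this panel Not Active means under 50% inhibition at 10 µM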
T3 sequence (P12530 whole entry): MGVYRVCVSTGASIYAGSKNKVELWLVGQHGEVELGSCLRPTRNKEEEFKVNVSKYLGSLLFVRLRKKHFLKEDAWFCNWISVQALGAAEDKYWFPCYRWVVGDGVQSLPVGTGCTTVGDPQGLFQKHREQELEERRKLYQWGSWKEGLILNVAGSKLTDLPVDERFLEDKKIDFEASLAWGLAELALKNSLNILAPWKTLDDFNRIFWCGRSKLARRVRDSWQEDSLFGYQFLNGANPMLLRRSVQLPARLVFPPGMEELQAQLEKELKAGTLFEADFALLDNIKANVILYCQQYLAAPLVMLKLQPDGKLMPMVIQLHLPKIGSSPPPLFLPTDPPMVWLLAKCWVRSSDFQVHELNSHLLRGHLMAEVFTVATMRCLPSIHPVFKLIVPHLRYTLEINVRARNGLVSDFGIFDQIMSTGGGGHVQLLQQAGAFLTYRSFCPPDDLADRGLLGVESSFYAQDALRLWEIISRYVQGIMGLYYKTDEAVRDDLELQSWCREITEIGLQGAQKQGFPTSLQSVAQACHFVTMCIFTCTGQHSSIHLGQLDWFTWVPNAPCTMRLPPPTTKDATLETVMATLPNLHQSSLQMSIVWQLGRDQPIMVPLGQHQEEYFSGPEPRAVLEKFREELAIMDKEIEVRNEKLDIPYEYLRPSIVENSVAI

Row | Structure (SMILES) | IC50 [1] | Ki [1] | IC50 [2] | IC50 [3] | IC50 [4] | Ki [4] | IC50 [5] | IC50 ([6]; reticulocytes) | IC50 ([3]; read-out: IC50) | IC50 ([6]; read-out: IC50)
1 | OC[C@H]1OC2C3[C@@H](CO)OC(O[C@H]4[C@H](O)[C@@H](O)[C@@H](O[C@H]5[C@H](O)[C@@H](O)[C@@H](O[C@H]6[C@H](O)[C@@H](O)[C@@H](O[C@H]7[C@H](O)[C@@H](O)[C@@H](O[C@H]8[C@H](O)[C@@H](O)[C@@H](O[C@H]9[C@H](O)[C@@H](O)C(OC1[C@H](O)[C@H]2O)O[C@@H]9CO)O[C@@H]8CO)O[C@@H]7CO)O[C@@H]6CO)O[C@@H]5CO)O[C@@H]4CO)[C@H](O)[C@H]3O | Not Active | Not Active | Not Active | Not Active | Not Active | Not Active | Not Active | Not Active |  | 
2 | CO[C@H]1O[C@@H]2O[C@@]3(C)CC[C@H]4[C@H](C)CC[C@@H]([C@H]1C)[C@@]24OO3 | Not Active | Not Active | Not Active | Not Active | Not Active | Not Active | Not Active | Not Active |  | 
3 | CC(C)Cn1cnc2c(N)nc3ccccc3c21 [IMIQUIMOD] | Not Active | Not Active | Not Active | Not Active | Not Active | Not Active | Not Active | Not Active |  | 
4 | COc1cc(NC(C)CCCN)c2ncccc2c1 (stereo unspecified) [PRIMAQUINE] | Not Active | Not Active | Not Active | Not Active | Not Active | Not Active | Not Active | Not Active |  | 
5 | O=C(O)COC(=O)Cc1ccccc1Nc1c(Cl)cccc1Cl [ACECLOFENAC] | Not Active | Not Active | Not Active |  | Not Active | Not Active | Not Active | Not Active | 5.93 µM | 
6 | C#C[C@]1(O)CC[C@H]2[C@@H]3CCC4=CC(=O)CC[C@@H]4[C@H]3CC[C@@]21C [NORETHINDRONE] | Not Active | Not Active | Not Active | Not Active | Not Active | Not Active | Not Active | Not Active |  | 
7 | CC(C)(C#N)c1cc(Cn2cncn2)cc(C(C)(C)C#N)c1 [ANASTROZOLE] | Not Active | Not Active | Not Active | Not Active | Not Active | Not Active | Not Active | Not Active |  | 
8 | O=C(Nc1ccc(Cl)c(Cl)c1)c1cc(Cl)cc(Cl)c1O [3,3',4',5-TETRACHLOROSALICYLANILIDE] | Not Active | Not Active | Not Active |  | Not Active | Not Active | Not Active | Not Active | 0.886 µM | 
9 | O=C(O)CO [GLYCOLIC ACID] | Not Active | Not Active | Not Active | Not Active | Not Active | Not Active | Not Active | Not Active |  | 
10 | COC(=O)C[C@](O)(CCC(C)(C)O)C(=O)O[C@@H]1C(OC)=C[C@]23CCCN2CCc2cc4c(cc2[C@H]13)OCO4 [HARRINGTONINE] | Not Active | Not Active | Not Active | Not Active | Not Active | Not Active | Not Active | Not Active |  | 
11 | CC(C)(c1ccc(O)cc1)c1ccc(O)cc1 [BISPHENOL A] | Not Active | Not Active | Not Active | Not Active | Not Active | Not Active | Not Active |  |  | 1300 nM
12 | C=CCO [ALLYL ALCOHOL] | Not Active | Not Active | Not Active | Not Active | Not Active | Not Active | Not Active | Not Active |  | 
